In US20100311714A1, “1H-IMIDAZO[4,5-c]QUINOLINONE COMPOUNDS” (priority 2009, published 2010):
pIC50: −log10 of the molar value.

target: T1, PI3K beta (Homo sapiens, UniProt P42338); assay: PI3K beta kinase assay (Kinase-Glo luminescence); format: biochemical; conditions: read-out: EPK_PI3Kbeta/IC50
T1 construct: for the full-length p110-b subunit are generated and fused by overlapping PCR; His tag (C); made in house; host or cells: baculovirus BV949; Tn5 (Trichoplusia ni) or TiniPro insect cells
T1 sequence (P42338 with tags, fused parts or gaps limits assumed): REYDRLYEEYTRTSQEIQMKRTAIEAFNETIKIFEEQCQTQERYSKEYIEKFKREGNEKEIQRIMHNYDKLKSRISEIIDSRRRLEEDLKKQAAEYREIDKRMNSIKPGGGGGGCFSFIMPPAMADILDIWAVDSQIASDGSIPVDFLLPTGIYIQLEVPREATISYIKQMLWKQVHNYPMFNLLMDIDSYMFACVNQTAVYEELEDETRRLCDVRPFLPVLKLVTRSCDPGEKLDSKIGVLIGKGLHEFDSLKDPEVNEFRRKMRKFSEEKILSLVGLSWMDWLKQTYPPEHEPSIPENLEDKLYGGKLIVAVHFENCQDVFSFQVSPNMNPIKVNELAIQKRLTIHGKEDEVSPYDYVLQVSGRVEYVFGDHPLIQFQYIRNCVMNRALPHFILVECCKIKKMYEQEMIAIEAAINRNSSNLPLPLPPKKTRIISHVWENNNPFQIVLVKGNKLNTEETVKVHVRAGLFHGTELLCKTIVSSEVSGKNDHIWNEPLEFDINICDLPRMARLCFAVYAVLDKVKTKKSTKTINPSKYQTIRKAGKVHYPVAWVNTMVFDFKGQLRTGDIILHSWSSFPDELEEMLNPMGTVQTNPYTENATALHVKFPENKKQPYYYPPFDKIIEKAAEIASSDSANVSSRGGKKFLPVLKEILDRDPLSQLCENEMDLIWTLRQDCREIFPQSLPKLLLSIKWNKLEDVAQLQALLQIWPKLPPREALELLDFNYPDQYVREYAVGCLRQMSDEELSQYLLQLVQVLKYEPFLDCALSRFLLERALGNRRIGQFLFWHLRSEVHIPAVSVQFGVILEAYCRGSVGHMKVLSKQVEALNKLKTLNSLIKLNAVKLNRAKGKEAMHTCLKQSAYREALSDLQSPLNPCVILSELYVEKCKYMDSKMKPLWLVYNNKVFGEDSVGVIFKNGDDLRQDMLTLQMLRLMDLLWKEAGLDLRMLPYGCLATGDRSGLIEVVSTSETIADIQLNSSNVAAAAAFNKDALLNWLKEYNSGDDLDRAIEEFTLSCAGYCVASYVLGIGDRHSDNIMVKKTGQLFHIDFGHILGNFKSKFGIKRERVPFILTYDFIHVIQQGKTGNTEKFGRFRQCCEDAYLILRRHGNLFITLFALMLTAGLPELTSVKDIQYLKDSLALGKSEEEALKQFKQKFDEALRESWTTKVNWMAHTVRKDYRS
Outline: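 Kinase-Glo luminescence read out ATP left after a 60-min room-temperature reaction, started with ATP (1 μM final) on 25 nM His-tagged p85 iSH2–p110β (BV949) plus 10 μg/mL PI substrate in pH 7.5 Tris buffer. Percent inhibition at eight concentrations was fitted to a four-parameter logistic model for IC50.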

Row | pIC50 | Structure (SMILES)
1 | 7.44 | Cc1nc(N2CCC(O)C2)ccc1-n1c(=O)n(C)c2cnc3ccc(-c4cnc(N)c(C(F)(F)F)c4)cc3c21 (stereo not shown) [Example 27.3, 8-(6-Amino-5-trifluoromethyl-pyridin-3-yl)-1-[6-(3-hydroxy-pyrrolidin-1-yl)-2-methyl-pyridin-3-yl]-3-methyl-1,3-dihydro-imidazo[4,5-c]quinolin-2-one]
2 | 5.70 | CCNc1cc(-c2ccc3ncc4c(c3c2)n(-c2ccc(N(C)CCO)nc2C)c(=O)n4C)cnc1CO [Example 26.3, 8-(5-Ethylamino-6-hydroxymethyl-pyridin-3-yl)-1-{6-[(2-hydroxy-ethyl)-methyl-amino]-2-methyl-pyridin-3-yl}-3-methyl-1,3-dihydro-imidazo[4,5-c]quinolin-2-one]
3 | 6.02 | Cc1nc(F)ccc1-n1c(=O)n(C)c2cnc3ccc(-c4cncc(N5CCC5)c4)cc3c21 [Example 7.6, 8-(5-Azetidin-1-yl-pyridin-3-yl)-1-(6-fluoro-2-methyl-pyridin-3-yl)-3-methyl-1,3-dihydro-imidazo[4,5-c]quinolin-2-one]
4 | 7.70 | COc1cc(-c2ccc3ncc4c(c3c2)n(-c2ccc(F)nc2C)c(=O)n4C)cnc1CO [Example 7.10, 1-(6-Fluoro-2-methyl-pyridin-3-yl)-8-(6-hydroxymethyl-5-methoxy-pyridin-3-yl)-3-methyl-1,3-dihydro-imidazo[4,5-c]quinolin-2-one]
5 | 6.04 | CCOc1ccc(-c2ccc3ncc4c(c3c2)n(-c2ccc(N3CCC(O)C3)nc2C)c(=O)n4C)cn1 (stereo not shown) [Example 27.4, 8-(6-Ethoxy-pyridin-3-yl)-1-[6-(3-hydroxy-pyrrolidin-1-yl)-2-methyl-pyridin-3-yl]-3-methyl-1,3-dihydro-imidazo[4,5-c]quinolin-2-one]
6 | 7.22 | Cc1nc(N2CC(O)C2)ccc1-n1c(=O)n(C)c2cnc3ccc(-c4cncc(C(C)(C)O)c4)cc3c21 [Example 29.1, 1-[6-(3-Hydroxy-azetidin-1-yl)-2-methyl-pyridin-3-yl]-8-[5-(1-hydroxy-1-methyl-ethyl)-pyridin-3-yl]-3-methyl-1,3-dihydro-imidazo[4,5-c]quinolin-2-one]
7 | 6.58 | COc1ccc(-n2c(=O)n(C)c3cnc4ccc(-c5cnc(C(OC)OC)c(OC)c5)cc4c32)c(OC)n1 [Example 8.13, 8-(6-Dimethoxymethyl-5-methoxy-pyridin-3-yl)-1-(2,6-dimethoxy-pyridin-3-yl)-3-methyl-1,3-dihydro-imidazo[4,5-c]quinolin-2-one]
8 | 6.44 | COCc1ncc(-c2ccc3ncc4c(c3c2)n(-c2ccc(F)nc2C)c(=O)n4C)cc1OC [Example 7.7, 1-(6-Fluoro-2-methyl-pyridin-3-yl)-8-(5-methoxy-6-methoxymethyl-pyridin-3-yl)-3-methyl-1,3-dihydro-imidazo[4,5-c]quinolin-2-one]
9 | 6.70 | COc1cc(-c2ccc3ncc4c(c3c2)n(-c2ccc(N3CC[C@H](O)C3)nc2C)c(=O)n4C)cnc1CO [Example 32.7, 8-(6-Hydroxymethyl-5-methoxy-pyridin-3-yl)-1-[6-((S)-3-hydroxy-pyrrolidin-1-yl)-2-methyl-pyridin-3-yl]-3-methyl-1,3-dihydro-imidazo[4,5-c]quinolin-2-one]
10 | 6.14 | COc1ccc(-n2c(=O)n(C)c3cnc4ccc(-c5cncc(N6CCC6)c5)cc4c32)c(OC)n1 [Example 8.11, 8-(5-Azetidin-1-yl-pyridin-3-yl)-1-(2,6-dimethoxy-pyridin-3-yl)-3-methyl-1,3-dihydro-imidazo[4,5-c]quinolin-2-one]
11 | 6.37 | COc1cc(-c2ccc3ncc4c(c3c2)n(-c2ccc(N)nc2C)c(=O)n4C)cnc1CO [Example 30.1, 1-(6-Amino-2-methyl-pyridin-3-yl)-8-(6-hydroxymethyl-5-methoxy-pyridin-3-yl)-3-methyl-1,3-dihydro-imidazo[4,5-c]quinolin-2-one]
12 | 6.40 | COCc1ncc(-c2ccc3ncc4c(c3c2)n(-c2cccnc2C)c(=O)n4C)cc1OC [Example 2.30, 8-(5-Methoxy-6-methoxymethyl-pyridin-3-yl)-3-methyl-1-(2-methyl-pyridin-3-yl)-1,3-dihydro-imidazo[4,5-c]quinolin-2-one]
13 | 5.96 | CNc1ncc(-c2ccc3ncc4c(c3c2)n(-c2ccc(N3CC[C@@H](O)C3)nc2C)c(=O)n4C)cn1 [Example 34.1, 1-[6-((R)-3-Hydroxy-pyrrolidin-1-yl)-2-methyl-pyridin-3-yl]-3-methyl-8-(2-methylamino-pyrimidin-5-yl)-1,3-dihydro-imidazo[4,5-c]quinolin-2-one]
14 | 5.81 | COc1ccc(-n2c(=O)n(C)c3cnc4ccc(-c5cnc(CO)c(OC)c5)cc4c32)c(OC)n1 [Example 8.14, 1-(2,6-Dimethoxy-pyridin-3-yl)-8-(6-hydroxymethyl-5-methoxy-pyridin-3-yl)-3-methyl-1,3-dihydro-imidazo[4,5-c]quinolin-2-one]
15 | 5.64 | COc1cc(-c2ccc3ncc4c(c3c2)n(-c2ccc(N3CC(F)(F)C3)nc2C)c(=O)n4C)cnc1CO [Example 24.4, 1-[6-(3,3-Difluoro-azetidin-1-yl)-2-methyl-pyridin-3-yl]-8-(6-hydroxymethyl-5-methoxy-pyridin-3-yl)-3-methyl-1,3-dihydro-imidazo[4,5-c]quinolin-2-one]
16 | 6.76 | COc1cc(-c2ccc3ncc4c(c3c2)n(-c2ccc(N3CCC(OC)C3)nc2C)c(=O)n4C)cnc1CO (stereo not shown) [Example 28.3, 8-(6-Hydroxymethyl-5-methoxy-pyridin-3-yl)-1-[6-(3-methoxy-pyrrolidin-1-yl)-2-methyl-pyridin-3-yl]-3-methyl-1,3-dihydro-imidazo[4,5-c]quinolin-2-one]
17 | 6.57 | COc1cc(-c2ccc3ncc4c(c3c2)n(-c2ccc(N3CCCC3)nc2C)c(=O)n4C)cnc1CO [Example 25.4, 8-(6-Hydroxymethyl-5-methoxy-pyridin-3-yl)-3-methyl-1-(2-methyl-6-pyrrolidin-1-yl-pyridin-3-yl)-1,3-dihydro-imidazo[4,5-c]quinolin-2-one]
18 | 6.97 | CNc1ncc(-c2ccc3ncc4c(c3c2)n(-c2ccc(N3CC[C@H](O)C3)nc2C)c(=O)n4C)cc1Cl [Example 32.4, 8-(5-Chloro-6-methylamino-pyridin-3-yl)-1-[6-((S)-3-hydroxy-pyrrolidin-1-yl)-2-methyl-pyridin-3-yl]-3-methyl-1,3-dihydro-imidazo[4,5-c]quinolin-2-one]
19 | 7.11 | CCNc1cc(-c2ccc3ncc4c(c3c2)n(-c2ccc(N3CC(F)(F)C(F)(F)C3)nc2C)c(=O)n4C)cnc1CO [Example 35.2, 8-(5-Ethylamino-6-hydroxymethyl-pyridin-3-yl)-3-methyl-1-[2-methyl-6-(3,3,4,4-tetrafluoro-pyrrolidin-1-yl)-pyridin-3-yl]-1,3-dihydro-imidazo[4,5-c]quinolin-2-one]
20 | 7.77 | Cc1nc(N2CCC(O)C2)ccc1-n1c(=O)n(C)c2cnc3ccc(-c4cncc(C(C)(C)O)c4)cc3c21 (stereo not shown) [Example 27.5, 8-[5-(1-Hydroxy-1-methyl-ethyl)-pyridin-3-yl]-1-[6-(3-hydroxy-pyrrolidin-1-yl)-2-methyl-pyridin-3-yl]-3-methyl-1,3-dihydro-imidazo[4,5-c]quinolin-2-one]
21 | 7.92 | CCNc1cc(-c2ccc3ncc4c(c3c2)n(-c2ccc(N3CCCC3)nc2C)c(=O)n4C)cnc1CO [Example 25.5, 8-(5-Ethylamino-6-hydroxymethyl-pyridin-3-yl)-3-methyl-1-(2-methyl-6-pyrrolidin-1-yl-pyridin-3-yl)-1,3-dihydro-imidazo[4,5-c]quinolin-2-one]
22 | 6.52 | CNc1ncc(-c2ccc3ncc4c(c3c2)n(-c2ccc(N3CCC(OC)C3)nc2C)c(=O)n4C)cn1 (stereo not shown) [Example 28.2, 1-[6-(3-Methoxy-pyrrolidin-1-yl)-2-methyl-pyridin-3-yl]-3-methyl-8-(2-methylamino-pyrimidin-5-yl)-1,3-dihydro-imidazo[4,5-c]quinolin-2-one]

same assay, conditions: read-out: PI3Kbeta/IC50

Row | pIC50 | Structure (SMILES)
23 | 6.17 | CNC(=O)c1ccc(-c2ccc3ncc4c(c3c2)n(-c2cccnc2C)c(=O)n4C)cc1 [Example 2.4, N-Methyl-4-[3-methyl-1-(2-methyl-pyridin-3-yl)-2-oxo-2,3-dihydro-1H-imidazo[4,5-c]quinolin-8-yl]-benzamide]
24 | 6.76 | Cc1ncccc1-n1c(=O)n(C)c2cnc3ccc(-c4cnc5[nH]ccc5c4)cc3c21 [Example 2.8, 3-Methyl-1-(2-methyl-pyridin-3-yl)-8-(1H-pyrrolo[2,3-b]pyridin-5-yl)-1,3-dihydro-imidazo[4,5-c]quinolin-2-one]
25 | 6.95 | Cn1c(=O)n(-c2cccnc2F)c2c3cc(-c4cnc5[nH]ccc5c4)ccc3ncc21 [Example 6.3, 1-(2-Fluoro-pyridin-3-yl)-3-methyl-8-(1H-pyrrolo[2,3-b]pyridin-5-yl)-1,3-dihydro-imidazo[4,5-c]quinolin-2-one]
